The values below come from patent US12617767B2, “Crystalline forms of somatostatin modulators” (Crinetics Pharmaceuticals, Inc., priority 2019, dated 2026).

Format in all cases: physicochemical
Data set [1] can be described thus: Kinetic solubility studies in FaSSIF and FeSSIF. The note with it: FeSSIF. On the procedure:
The solubility of the dimesylate (Pattern B) and mono-HCl salts of Compound A was determined in FaSSIF (pH 6.5) at 37° C. after a slurry time of 5, 20 and 40 minutes. FaSSIF was warmed to 37° C. and added to a vial of ca. 9 mg of the salt to mark t=0. The mixture was kept stirring at 37° C. and a sample drawn with a syringe at t+5, 20 and 40 minutes. The samples were syringe filtered and the filtrate was diluted 2× to ensure no precipitation while waiting for HPLC analysis. The pH of the solution collected at 40 minutes was measured. The slurry was sampled again the following day and the supernatant from syringe filtration was analyzed directly by HPLC without dilution. The same experiment was run with FeSSIF (pH 5.0).

A short description of data set [2]: Stability of XRPD pattern on drying. The settings on record: for XRPD pattern upon drying: dimesylate. On the procedure: Short term slurries were carried out at two temperatures in 14 solvents. About 25 mg solid was added to a 2 mL vial followed by 0.70 mL of solvent. If all solids dissolved, more solid was added until a slurry was formed within reason. Slurries were stirred at constant temperature for four days (ambient temperature, 21-23° C.; or high temperature, 50° C.). After stirring for four days, solids were allowed to settle and were then recovered for XRPD analysis. XRPD analysis was performed on the wet cake, and if a new pattern was observed, the sample was dried in a vacuum oven at 50° C. for a minimum of 4 hours, then the dried sample was analyzed by XRPD.
Stability on Drying: A sample of Pattern B was prepared on an XRPD sample holder and analysed by XRPD to create a baseline. The disk was then left in a vacuum oven at 50° C. under static vacuum for 3 days. On the third day, the sample was removed from the oven and the “dry” pattern was recorded immediately.
(§1) Compound A⋅2MSA (Pattern A) was slurried in EtOH overnight at room temperature (ca. 16 hours). […] The bulk was dried in a vacuum oven at 50° C. under dynamic vacuum for 4.5 hours. The dried solids were removed from the oven and a “dry” XRPD analysis was collected.

Data set [3] in a line: Equilibrium solubility in simulated fluids and water at 37° C. The note with it: for comments / Concentration: 24 hrs; for Concentration: mg of Compound A (free base); for Concentration / pH (24 hr): dimesylate. On the procedure: The solubility Compound A⋅2MSA, Patterns A, B and I, was measured in water, fasted state simulated gastric fluid (FaSSGF) and fasted state simulated intestinal fluid (FaSSIF) at 37° C. by slurrying in the respective media for 24 hours. 1.5 mL of the fluid was stirred at 37° C. About 5 mg of the specified solid was added to FaSSIF and a thin slurry was immediately formed. As a test, approximately 80 and 60 mg of Pattern A was added to 1.5 mL of water and FaSSGF, respectively without formation of a slurry. Therefore, about 10 mg of the desired Pattern was added to water and FaSSGF solutions. The samples were allowed to stir at 37° C. for 24 hrs. The stir bars were removed from the FaSSIF vials and the solids allowed to settle for 0.5 hours at 37° C. The supernatant/solutions were syringe filtered and recovered for analysis by HPLC as well as for pH measurement.

Data set [4] in a line: Dynamic Vapor Sorption (DVS). The note with it: between 2% and 95% Relative Humidity (RH); dimesylate. On the procedure: Dynamic Vapor Sorption (DVS) was done using a DVS Intrinsic 1. The sample is loaded into a sample pan and suspended from a microbalance. A typical sample mass for DVS measurement is 25 mg. Nitrogen gas bubbled through distilled water provides the desired relative humidity.
A typical measurement comprises the steps: • 1—Equilibrate at 50% RH • 2-50% to 2%. (50%, 40%, 30%, 20%, 10% and 2%) • a. Hold minimum of 5 mins and maximum of 240 minutes at each humidity. The pass criteria is less than 0.002% change • 3-2% to 95% (2%, 10%, 20%, 30%, 40%, 50%, 60%, 70%, 80%, 90%, 95%) • a. Hold minimum of 5 mins and maximum of 240 minutes at each humidity. The pass criteria is less than 0.002% change • 4-95% to 2% (95%, 80%, 70%, 60%, 50%, 40%, 30%, 20%, 10%, 2%) • a. Hold minimum of 5 mins and maximum of 240 minutes at each humidity. The pass criteria is less than 0.002% change • 5-2% to 50% (2%, 10%, 20%, 30%, 40%, 50%) • a. Hold minimum of 5 mins and maximum of 240 minutes at each humidity. The pass criteria is less than 0.002% change Dynamic Vapor Sorption Isotherm Plots of Solid Forms of Compound A⋅2MSA

Data set [5] is described as follows: Storage at ambient conditions (XRPD). On the procedure: Characterization after storage under ambient conditions: Pattern B was left at ambient conditions (21-22° C., 10-40% RH) for a week then characterized by)(RFD, TGA/DSC, and water content measured by Karl-Fischer titration. […] The water content was confirmed by KF titration which yielded a value of 4.20 wt. %.
Compound A⋅2MSA (Pattern A, 0.2622 g) was added to a 20 mL vial with a stir bar. Fifteen volumes (3.93 mL) of EtOH was added and the slurry was stirred overnight (˜20 hours). The slurry was sampled to confirm the correct pattern was generated, then the solids were collected by filtration. The resultant yellow solid was dried in a vacuum oven at 50° C. under dynamic vacuum for 2 hours, then under static vacuum overnight (˜16 hours) to yield 0.2015 g (77% yield). The in-situ sample drawn was dried for 3 hours then the solid was used for characterization by solution ^1H-NMR spectroscopy and simultaneous TGA/DSC. The bulk was dried overnight and used for stand-alone DSC, and thermal treatment.
as §1
Compound A⋅2MSA (Pattern A, 0.2659 g) was added to a 20 mL vial with a stir bar. Twenty-five volumes (6.65 mL) of ACN was added and the slurry was stirred overnight (˜20 hours). The slurry was sampled to confirm the correct pattern was generated, then the solids were collected by filtration. The resultant yellow solid was dried in a vacuum oven at 50° C. under dynamic vacuum for 2 hours, then under static vacuum overnight (˜16 hours) to yield 0.2255 g (85% yield). The sample drawn was dried for 3 hours then the solid was used for characterization by solution ^1H-NMR spectroscopy and simultaneous TGA/DSC. The bulk was dried overnight and used for stand-alone DSC.

[6] abbreviates: solids from short term slurries, vacuum oven at 50° C., minimum of 4 hours.
The mark [7] stands for this setting: solids from amorphous slurry or antisolvent experiments.

Marks after values point to notes of the source that are not given here. Some results are limits rather than exact numbers.

Consider `CS(=O)(=O)O.CS(=O)(=O)O.N#Cc1cccc(-c2ccc3ncc(-c4cc(F)cc(F)c4)c(N4CCC(N)CC4)c3c2)c1O` [Compound A⋅2MSA, 3-(4-(4-aminopiperidin-1-yl)-3-(3,5-difluorophenyl)quinolin-6-yl)-2-hydroxybenzonitrile dimesylate], for which the “solubility relative to the HCl salt” value in data set [1] was determined as 12 ×.

Turning to `CS(=O)(=O)O.CS(=O)(=O)O.N#Cc1cccc(-c2ccc3ncc(-c4cc(F)cc(F)c4)c(N4CCC(N)CC4)c3c2)c1O` [Pattern A, 3-(4-(4-aminopiperidin-1-yl)-3-(3,5-difluorophenyl)quinolin-6-yl)-2-hydroxybenzonitrile dimesylate], in data set [2] (setting [6]), the “XRPD pattern upon drying” value was “stable upon drying”. Further, the results for the “amount added to 1.5 mL without formation of a slurry” value in data set [3] (FaSSGF) and in data set [3] (water) were approximately 60 mg and “approximately 80 mg”, respectively. For the same compound, the “reversible water uptake (DVS)” value in data set [4] is on record as 9.8 % w/w.

For the compound `CS(=O)(=O)O.CS(=O)(=O)O.N#Cc1cccc(-c2ccc3ncc(-c4cc(F)cc(F)c4)c(N4CCC(N)CC4)c3c2)c1O` [Pattern C, 3-(4-(4-aminopiperidin-1-yl)-3-(3,5-difluorophenyl)quinolin-6-yl)-2-hydroxybenzonitrile dimesylate], the “XRPD pattern upon drying” value in data set [2] (setting [6]) is “stable upon drying”. Further, the “XRPD pattern after drying” value in data set [2] (vacuum oven at 50° C. under dynamic vacuum for 4.5 hours) was “a combination of Patterns C and I”. Further, the comments result is “dissolved” in data set [3] (FaSSGF (pH 1.70)), “disproportionated” in data set [3] (FaSSIF (pH 6.48)) and “dissolved” in data set [3] (water). The Concentration was >7.75^b mg/mL in data set [3] (FaSSGF (pH 1.70), above calibration range); 0.010 mg/mL in data set [3] (FaSSIF (pH 6.48)); >6.59^b mg/mL in data set [3] (water, above calibration range). The “pH (24 hr)” value is listed as 1.84 in data set [3] (FaSSGF (pH 1.70)), 6.06 in data set [3] (FaSSIF (pH 6.48)) and 3.09 in data set [3] (water). Further, in data set [5] (24 hours), the “XRPD pattern of wet sample left at ambient conditions” value is “did not change”. Also, the “XRPD pattern after storage at ambient conditions” value in data set [5] (bulk, 6 days at ambient conditions, dimesylate) is listed as “a pattern resembling Pattern I”.

As for `CS(=O)(=O)O.CS(=O)(=O)O.N#Cc1cccc(-c2ccc3ncc(-c4cc(F)cc(F)c4)c(N4CCC(N)CC4)c3c2)c1O` [Pattern D, 3-(4-(4-aminopiperidin-1-yl)-3-(3,5-difluorophenyl)quinolin-6-yl)-2-hydroxybenzonitrile dimesylate], the “XRPD pattern upon drying” value in data set [2] (setting [6]) is “converted to Pattern A”.

With `CS(=O)(=O)O.CS(=O)(=O)O.N#Cc1cccc(-c2ccc3ncc(-c4cc(F)cc(F)c4)c(N4CCC(N)CC4)c3c2)c1O` [Pattern E, 3-(4-(4-aminopiperidin-1-yl)-3-(3,5-difluorophenyl)quinolin-6-yl)-2-hydroxybenzonitrile dimesylate], the “XRPD pattern upon drying” value in data set [2] (setting [6]) is recorded as “converted to Pattern A”.

For `CS(=O)(=O)O.CS(=O)(=O)O.N#Cc1cccc(-c2ccc3ncc(-c4cc(F)cc(F)c4)c(N4CCC(N)CC4)c3c2)c1O` [Pattern F, 3-(4-(4-aminopiperidin-1-yl)-3-(3,5-difluorophenyl)quinolin-6-yl)-2-hydroxybenzonitrile dimesylate], in data set [2] (setting [6]), the “XRPD pattern upon drying” value is “converted to Pattern I”.

For `CS(=O)(=O)O.CS(=O)(=O)O.N#Cc1cccc(-c2ccc3ncc(-c4cc(F)cc(F)c4)c(N4CCC(N)CC4)c3c2)c1O` [Pattern G, 3-(4-(4-aminopiperidin-1-yl)-3-(3,5-difluorophenyl)quinolin-6-yl)-2-hydroxybenzonitrile dimesylate], in data set [2] (setting [6]), the “XRPD pattern upon drying” value is on record as “converted to Pattern I”.

In the case of `CS(=O)(=O)O.CS(=O)(=O)O.N#Cc1cccc(-c2ccc3ncc(-c4cc(F)cc(F)c4)c(N4CCC(N)CC4)c3c2)c1O` [Pattern H, 3-(4-(4-aminopiperidin-1-yl)-3-(3,5-difluorophenyl)quinolin-6-yl)-2-hydroxybenzonitrile dimesylate], the “XRPD pattern upon drying” value in data set [2] (setting [6]) is “converted to Pattern I”.

For `CS(=O)(=O)O.CS(=O)(=O)O.N#Cc1cccc(-c2ccc3ncc(-c4cc(F)cc(F)c4)c(N4CCC(N)CC4)c3c2)c1O` [Pattern M, 3-(4-(4-aminopiperidin-1-yl)-3-(3,5-difluorophenyl)quinolin-6-yl)-2-hydroxybenzonitrile dimesylate], in data set [2] (setting [7]), the “XRPD pattern upon drying” value is listed as “lost crystallinity upon drying”.

For `CS(=O)(=O)O.CS(=O)(=O)O.N#Cc1cccc(-c2ccc3ncc(-c4cc(F)cc(F)c4)c(N4CCC(N)CC4)c3c2)c1O` [Pattern N, 3-(4-(4-aminopiperidin-1-yl)-3-(3,5-difluorophenyl)quinolin-6-yl)-2-hydroxybenzonitrile dimesylate], in data set [2] (setting [7]), the “XRPD pattern upon drying” value is recorded as “stable upon drying”.

On to `CS(=O)(=O)O.CS(=O)(=O)O.N#Cc1cccc(-c2ccc3ncc(-c4cc(F)cc(F)c4)c(N4CCC(N)CC4)c3c2)c1O` [Pattern O, 3-(4-(4-aminopiperidin-1-yl)-3-(3,5-difluorophenyl)quinolin-6-yl)-2-hydroxybenzonitrile dimesylate], for which the “XRPD pattern upon drying” value in data set [2] (setting [7]) is “stable upon drying”.
